Source: US20250041624A1, “METHOD FOR ENHANCING ACTIVITY OF PHOTOSENSITIZER BY MAGNETIC FIELD” (PEKING UNIVERSITY, priority 2021, published 2025)

Key:
[1] = Reaction rate of fluorescent probe SOSG with 1O2 generated by photosensitizer under light and magnetic field; type: physicochemical; details: for first derivative of the I525 nm−t curve (normalized): RB and SOSG 10 μmol/L in water, 561 nm LED 5 mW·cm−2, time 0
Procedure: (1) The photosensitizer Rose Bengal (RB) (the purity >98%, available from Saen Chemical Technologies (Shanghai) Ltd. Co., branded as Energy Chemical) and singlet oxygen fluorescent probe (SOSG) are dissolved in water (SOSG available from ThermoFisher Scientific (China) Co., Ltd.). In the resulting solution, the photosensitizer and SOSG are both at a concentration of 10 μmol/L. In a magnetic field with certain strength, the solutions are exposed to a 561 nm LED lamp (light emitting diode) at a power of 5 mW·cm^−2 and tested for fluorescence spectra at 0, 15, 30, 45, 60, 90, 120 and 180 seconds of light exposure, respectively, resulting in emission intensity ([…]) versus time (t) curves. The above fluorescence spectroscopy test is performed at a magnetic field strength of 0, 10, 35, 85, 180, 300 mT, respectively (external magnetic field provided by a neodymium iron boron permanent magnet).
(2) The photosensitizer chlorin e6 (Ce6, Chlorin e6) (available from Saen Chemical Technologies (Shanghai) Ltd. Co., branded as Energy Chemical) and singlet oxygen fluorescent probe (SOSG) are dissolved in water, both with a concentration of 10 μmol/L in the resulting solutions. In a magnetic field with certain strength, the solutions are exposed to a 640 nm LED lamp (light emitting diode) at a power of 5 mW·cm^−2 and tested for fluorescence spectra at 0, 15, 30, 45, 60, 90, 120 and 180 seconds of light exposure, respectively, resulting in emission intensity ([…]) versus time (t) curves. The above fluorescence spectra are tested at a magnetic field strength of 0, 10, 30, 70, 150, 250 mT, respectively.
The external magnetic field is supplied by Neodymium Iron Boron Permanent Magnet. Fluorescence spectra are tested using Edinburg FLS980 Steady State Transient Fluorescence Spectrometer with a detector of PMT R928 and a light source of 450 W ozone-free xenon lamp with excitation wavelength of λex=488 nm.
Under irradiation conditions, photosensitizer is excited to produce singlet oxygen ^1O2, and fluorescent probe SOSG reacts with ^1O2 to give endoperoxide with green fluorescence emission characteristic, with emission wavelength of 525 nm under excitation wavelength conditions of 488 nm. The reaction has a reaction rate of r.
In the present invention, through application of light and a magnetic field, the magnetic field effects (MFEs) is quantified by mfeR, the change rate of the reaction rate r, mfeR=(rB−r0)/r0×100%, where r0 is the reaction rate at a magnetic field strength of 0 mT and rB is the reaction rate at a magnetic field strength of B mT. Where the reaction rate (r) is proportional to the slope of the tangent of a curve (first derivative of the curve) of the emission intensity (I525 nm) versus time (t). Under magnetic field strengths of 0, 10, 35, 85, 180, 300 mT and from the time of starting to illuminate and place in magnetic field (the time recorded as 0), the first derivative of the I525 nm−t curve is 1, 1.05, 1.09, 0.99, 1.12, 1.14 (normalized).

[2] = Body weight, abnormal signs and H&E staining of major organs of treated mice; type: in vivo; details: all groups
Source text: Test (two): After sacrificing the mice on day 14, tumor tissue and major organs (heart, liver, spleen, lungs and kidney) are collected and detected histologically. Tumor tissue and major organs are fixed by 10% neutral formalin solution. Hematoxylin-Eosin (H&E) staining is used to analyze toxicity of light and magnetic field effects on tumor and normal organs. Terminal deoxynucleotidyl transferase-mediated dUTP nick end labeling (TUNEL) staining is used to detect apoptosis in tumor tissue, and expression of cleaved Caspase-3, Bax and Bcl-2 in tumor tissue is simultaneously detected.

## O=C1OC2(c3cc(I)c(O)c(I)c3Oc3c2cc(I)c(O)c3I)c2c(Cl)c(Cl)c(Cl)c(Cl)c21 [RB, Rose Bengal]
[1]; MF 0 mT
  first derivative of the I525 nm−t curve (normalized): 1
[1]; MF 10 mT
  first derivative of the I525 nm−t curve (normalized): 1.05
[1]; MF 35 mT
  first derivative of the I525 nm−t curve (normalized): 1.09
[1]; MF 85 mT
  first derivative of the I525 nm−t curve (normalized): 0.99
[1]; MF 180 mT
  first derivative of the I525 nm−t curve (normalized): 1.12
[1]; MF 300 mT
  first derivative of the I525 nm−t curve (normalized): 1.14
[1]; peak, MF 250 mT vs 0 mT, FIG. 1
  mfer (change rate of reaction rate r of SOSG with 1O2): 25%
[2]; heart, liver, spleen, lungs and kidney, day 14, FIG. 20
  systemic toxicity (H&E staining of major organs): do not result in systemic toxicity
[2]; mice, 14 days
  body weight loss or other abnormal signs: No body weight loss or other abnormal signs
